Experimental data from patent publication US20190125753A1, “COMPOUNDS AND METHODS FOR INCREASING HEMATOPOIESIS” (University of Southern California, priority 2016, published 2019).

Columns and labels:
Wnt/β-catenin pathway = test: SuperTOPFLASH (STF1.1 Hek-293) Wnt/β-catenin-driven luciferase reporter; assay type: cell-based
Protocol: A. Wnt/β-Catenin Activity: The Initial SuperTOPFLASH Screen.
(§1) Hek293 cells were stably transfected with plasmid that contains multiple TCF/LEF fragments in front of Luciferase gene. Wnt/β-catenin activity was determined from luciferase expression levels. […] Briefly, stably transfected Hek-293, STFI.1 (Wnt/β-catenin-driven luciferase) and Survivin-Hek-293 (1 Kb Human survivin promoter-driven luciferase) cells were maintained in DMEM, 10% FBS, Pen/Strep with 400 μg/mL G418 or 2 μg/mL puromycin, respectively. To check the activity of ICG-001, YH249, and YH250, the cells were split into white-opaque 96-well plates at 10,000 cells per well and allowed to attach overnight. For SuperTOPLASH, the inhibitors were added to the cells and pre-incubated for 1 hour prior to stimulation with 10 mM Li Cl for 24 hours. Luciferase activity was read using BrightGlo (Promnega) luciferase substrate. For survivin/luc, the inhibitors were added to the cells and incubated for 24 hours prior to readout. To calculate IC5o values, the resulting curve was fitted to a four-parameter logistic model (4PL) using GraphPad Prism 5 software.
(§2) An endogenous human survivin 1 kb promoter was inserted before a luciferase gene. […] R1 and R2 were diversified in this study. Percent inhibition of luciferase activity was calculated according to the following equations; % inhibition of STF 1.1 reporter activity=(I−RLU(10 mM LiCl) treated/RLU(10 omM LiCl) vehicle×control)100, % inhibition of Survivin reporter activity=(1−RLUtreated/RLU vehicle control)×100. Error bars indicate the mean±SE of 3 separate experiments. Selectivity (FIG. 2H) was calculated by IC50 value for Survivin-Hek-293/IC50 value for STF 1.1.

Human survivin promoter = test: Survivin/luciferase reporter (Survivin-Hek-293); assay type: cell-based
Protocol: as §1
B. Survivin Expression Level: The Secondary Screen.
as §2

[1] = biological target: T1, p300/γ-catenin interaction (Mus musculus, UniProt B2RWS6); test: Co-IP of bone marrow Sca-1posit cells from treated mice (anti-p300); assay type: in vivo; details: YH250 2 mg/kg subcutaneously, 24 hrs
T1 construct: bone marrow Sca-1posit cells were isolated with Anti-Sca-1 microbeads; from tissue; host or cells: bone marrow Sca-1 positive cells of female C57/Black mice dosed in vivo
T1 sequence (B2RWS6 2-2412 limits assumed): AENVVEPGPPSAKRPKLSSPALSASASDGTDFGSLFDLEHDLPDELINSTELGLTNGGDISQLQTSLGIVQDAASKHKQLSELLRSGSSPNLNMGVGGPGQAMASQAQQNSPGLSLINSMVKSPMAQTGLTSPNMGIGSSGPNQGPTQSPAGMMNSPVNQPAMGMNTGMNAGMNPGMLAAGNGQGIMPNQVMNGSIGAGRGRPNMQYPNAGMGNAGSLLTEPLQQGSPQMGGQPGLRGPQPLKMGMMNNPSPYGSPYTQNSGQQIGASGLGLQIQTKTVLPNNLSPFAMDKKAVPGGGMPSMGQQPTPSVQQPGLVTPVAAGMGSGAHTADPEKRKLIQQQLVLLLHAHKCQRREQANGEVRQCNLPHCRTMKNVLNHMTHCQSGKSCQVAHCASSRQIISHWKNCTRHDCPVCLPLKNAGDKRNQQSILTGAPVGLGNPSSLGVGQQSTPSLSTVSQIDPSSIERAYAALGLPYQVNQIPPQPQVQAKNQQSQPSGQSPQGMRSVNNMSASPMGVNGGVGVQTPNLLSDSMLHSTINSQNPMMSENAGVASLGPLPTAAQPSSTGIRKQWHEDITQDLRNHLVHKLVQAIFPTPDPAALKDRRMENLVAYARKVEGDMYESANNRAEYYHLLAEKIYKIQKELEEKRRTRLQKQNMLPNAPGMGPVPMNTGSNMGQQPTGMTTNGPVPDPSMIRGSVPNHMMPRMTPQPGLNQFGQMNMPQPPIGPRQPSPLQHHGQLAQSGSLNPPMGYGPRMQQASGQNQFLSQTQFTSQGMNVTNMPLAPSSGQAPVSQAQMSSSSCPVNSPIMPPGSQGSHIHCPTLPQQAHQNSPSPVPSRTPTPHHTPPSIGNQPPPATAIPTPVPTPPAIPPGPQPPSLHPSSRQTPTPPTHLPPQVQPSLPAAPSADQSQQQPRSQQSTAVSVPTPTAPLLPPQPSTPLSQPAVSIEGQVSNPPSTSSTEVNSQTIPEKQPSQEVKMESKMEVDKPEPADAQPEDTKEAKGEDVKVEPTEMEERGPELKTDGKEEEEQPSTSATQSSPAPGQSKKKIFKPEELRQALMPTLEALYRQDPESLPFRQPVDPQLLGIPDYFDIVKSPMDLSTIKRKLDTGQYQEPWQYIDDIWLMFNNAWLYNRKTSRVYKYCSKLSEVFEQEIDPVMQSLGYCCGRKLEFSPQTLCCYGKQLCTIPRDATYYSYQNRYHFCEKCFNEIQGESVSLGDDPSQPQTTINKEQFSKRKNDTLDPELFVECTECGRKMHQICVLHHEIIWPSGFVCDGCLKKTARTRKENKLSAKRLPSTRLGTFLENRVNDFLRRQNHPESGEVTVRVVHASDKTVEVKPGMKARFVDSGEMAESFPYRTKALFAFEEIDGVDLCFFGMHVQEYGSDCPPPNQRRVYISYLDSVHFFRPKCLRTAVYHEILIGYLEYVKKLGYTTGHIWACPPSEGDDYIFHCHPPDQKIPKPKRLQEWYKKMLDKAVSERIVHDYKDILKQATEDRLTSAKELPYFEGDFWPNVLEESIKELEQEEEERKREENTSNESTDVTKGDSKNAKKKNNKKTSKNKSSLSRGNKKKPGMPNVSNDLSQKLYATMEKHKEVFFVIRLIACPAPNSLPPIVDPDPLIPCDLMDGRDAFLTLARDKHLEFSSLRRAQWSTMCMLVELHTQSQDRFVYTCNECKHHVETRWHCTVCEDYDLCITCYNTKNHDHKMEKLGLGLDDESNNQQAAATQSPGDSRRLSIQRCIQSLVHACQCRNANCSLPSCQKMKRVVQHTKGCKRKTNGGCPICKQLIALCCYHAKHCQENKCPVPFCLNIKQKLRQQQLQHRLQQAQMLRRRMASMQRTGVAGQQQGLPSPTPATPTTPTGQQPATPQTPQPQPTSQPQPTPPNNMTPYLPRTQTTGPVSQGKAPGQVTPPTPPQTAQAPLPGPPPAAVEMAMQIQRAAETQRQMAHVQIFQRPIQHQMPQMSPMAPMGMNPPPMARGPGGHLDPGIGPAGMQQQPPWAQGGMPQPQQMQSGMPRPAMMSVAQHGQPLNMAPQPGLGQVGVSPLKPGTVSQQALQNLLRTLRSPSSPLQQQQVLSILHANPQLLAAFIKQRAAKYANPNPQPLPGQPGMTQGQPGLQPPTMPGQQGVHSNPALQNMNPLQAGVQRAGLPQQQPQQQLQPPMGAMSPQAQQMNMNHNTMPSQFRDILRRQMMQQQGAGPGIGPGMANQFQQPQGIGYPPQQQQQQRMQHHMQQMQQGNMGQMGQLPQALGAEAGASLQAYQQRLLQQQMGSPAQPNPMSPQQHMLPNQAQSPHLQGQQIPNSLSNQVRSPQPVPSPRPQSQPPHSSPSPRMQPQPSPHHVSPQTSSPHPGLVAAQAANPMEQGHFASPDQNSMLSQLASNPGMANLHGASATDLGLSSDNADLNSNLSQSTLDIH
Protocol: (§3) YH250 was used in this study. Female C57/Black mice were administrated with either DMSO (solvent control) or YH250 (2 mg/kg) subcutaneously. 24 hrs later, bone marrow Sca-1posit cells were isolated with Anti-Sca-1 microbeads (Miltenyi Biotec, Cat#130-092-529) for co-immunoprecipitation (FIG. 4A). Cells were then lysed and incubated with either anti-CBP (A22) or anti-p300 (C20) antibodies. Then, the immunoprecipitation complex were electrophoresed and detected with antibodies to either β-catenin or γ-catenin. […] This confirms that YH250 directly disrupts the p300/catenin interaction thereby enhancing the CBP/catenin interaction in HSPCs.

[2] = biological target: T2, CBP/γ-catenin interaction (Mus musculus, UniProt P45481); test: Co-IP of bone marrow Sca-1posit cells from treated mice (anti-CBP); assay type: in vivo; details: YH250 2 mg/kg subcutaneously, 24 hrs
T2 construct: bone marrow Sca-1posit cells were isolated with Anti-Sca-1 microbeads; from tissue; host or cells: bone marrow Sca-1 positive cells of female C57/Black mice dosed in vivo
Protocol: as §3

R1 mESCs [3] = details: Wnt dependent manner; cited from earlier work
p300 = biological target: T3, p300 (Mus musculus, UniProt B2RWS6); test: Bio-249 affinity pull-down from C2Cl2 lysates, p300 immunoblot; assay type: binding
T3 construct: endogenous in cells; host or cells: lysates of mouse C2C12 myoblasts
T3 sequence (B2RWS6 whole entry): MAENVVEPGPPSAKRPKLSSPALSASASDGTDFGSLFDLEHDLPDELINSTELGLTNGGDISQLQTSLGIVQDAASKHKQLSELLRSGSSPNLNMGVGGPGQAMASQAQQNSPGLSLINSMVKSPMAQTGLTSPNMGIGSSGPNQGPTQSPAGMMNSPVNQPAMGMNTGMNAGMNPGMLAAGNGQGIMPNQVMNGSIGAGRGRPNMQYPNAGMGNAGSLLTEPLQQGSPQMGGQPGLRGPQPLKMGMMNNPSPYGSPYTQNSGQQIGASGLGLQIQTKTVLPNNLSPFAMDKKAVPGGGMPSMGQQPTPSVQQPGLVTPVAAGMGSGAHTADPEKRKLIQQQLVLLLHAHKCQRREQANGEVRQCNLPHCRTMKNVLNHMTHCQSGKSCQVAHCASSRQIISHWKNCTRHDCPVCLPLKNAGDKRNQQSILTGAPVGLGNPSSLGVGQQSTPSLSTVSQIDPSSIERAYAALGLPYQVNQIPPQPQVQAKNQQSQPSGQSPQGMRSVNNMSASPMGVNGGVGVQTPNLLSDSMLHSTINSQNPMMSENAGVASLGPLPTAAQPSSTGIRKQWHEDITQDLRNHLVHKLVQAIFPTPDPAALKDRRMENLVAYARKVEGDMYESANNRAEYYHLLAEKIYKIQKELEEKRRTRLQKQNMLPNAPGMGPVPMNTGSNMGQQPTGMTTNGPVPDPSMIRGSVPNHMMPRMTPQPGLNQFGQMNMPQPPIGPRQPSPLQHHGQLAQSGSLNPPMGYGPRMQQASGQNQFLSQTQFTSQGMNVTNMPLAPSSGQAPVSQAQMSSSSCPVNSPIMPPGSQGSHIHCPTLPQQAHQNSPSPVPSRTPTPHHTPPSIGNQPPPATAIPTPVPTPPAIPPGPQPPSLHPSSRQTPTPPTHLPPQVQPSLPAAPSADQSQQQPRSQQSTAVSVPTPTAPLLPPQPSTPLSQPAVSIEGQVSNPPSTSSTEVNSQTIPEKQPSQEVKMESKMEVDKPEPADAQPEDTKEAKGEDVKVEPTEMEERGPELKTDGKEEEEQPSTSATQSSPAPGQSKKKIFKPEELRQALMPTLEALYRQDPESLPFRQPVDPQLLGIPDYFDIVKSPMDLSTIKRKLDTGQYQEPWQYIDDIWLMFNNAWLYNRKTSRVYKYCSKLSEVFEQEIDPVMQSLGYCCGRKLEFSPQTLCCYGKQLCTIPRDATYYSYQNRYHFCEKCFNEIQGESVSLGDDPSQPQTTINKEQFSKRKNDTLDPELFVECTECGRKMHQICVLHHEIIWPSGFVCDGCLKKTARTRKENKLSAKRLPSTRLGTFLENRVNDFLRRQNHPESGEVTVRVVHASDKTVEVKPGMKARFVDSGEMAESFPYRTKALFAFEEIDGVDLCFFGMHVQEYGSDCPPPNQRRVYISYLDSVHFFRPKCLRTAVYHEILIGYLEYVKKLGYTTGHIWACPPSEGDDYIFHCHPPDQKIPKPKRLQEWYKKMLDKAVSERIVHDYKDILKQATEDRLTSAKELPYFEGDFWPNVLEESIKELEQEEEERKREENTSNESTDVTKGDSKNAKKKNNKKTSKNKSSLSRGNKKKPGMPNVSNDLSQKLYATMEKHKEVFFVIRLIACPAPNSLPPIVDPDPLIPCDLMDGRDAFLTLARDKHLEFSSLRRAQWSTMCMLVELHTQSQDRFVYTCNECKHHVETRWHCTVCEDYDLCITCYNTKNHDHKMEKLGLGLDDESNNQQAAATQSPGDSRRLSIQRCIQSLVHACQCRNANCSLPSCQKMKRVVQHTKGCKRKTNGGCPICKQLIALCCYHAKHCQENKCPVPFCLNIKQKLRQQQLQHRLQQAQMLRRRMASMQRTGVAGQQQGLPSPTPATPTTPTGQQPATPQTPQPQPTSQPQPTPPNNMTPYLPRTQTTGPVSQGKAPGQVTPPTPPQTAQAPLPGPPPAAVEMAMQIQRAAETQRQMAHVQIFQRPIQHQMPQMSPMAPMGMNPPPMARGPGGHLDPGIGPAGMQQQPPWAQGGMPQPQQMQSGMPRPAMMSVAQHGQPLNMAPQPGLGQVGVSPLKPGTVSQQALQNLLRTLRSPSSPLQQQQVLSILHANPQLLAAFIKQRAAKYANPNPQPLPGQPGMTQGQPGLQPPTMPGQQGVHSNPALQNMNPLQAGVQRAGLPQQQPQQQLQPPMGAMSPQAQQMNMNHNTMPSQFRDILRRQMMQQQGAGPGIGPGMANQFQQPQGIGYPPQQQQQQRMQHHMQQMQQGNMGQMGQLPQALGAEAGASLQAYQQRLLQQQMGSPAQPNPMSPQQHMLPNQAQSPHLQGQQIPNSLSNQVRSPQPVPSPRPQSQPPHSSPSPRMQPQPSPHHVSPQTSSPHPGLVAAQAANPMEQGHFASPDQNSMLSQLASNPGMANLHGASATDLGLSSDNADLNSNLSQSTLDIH
Protocol: YH249 and YH250 were selected from the compounds described herein for further testing. Co-immunoprecipitation (CO-IP) was performed with mouse myoblast C2Cl2 cells. Cells were treated with DMSO (control), or YH249, or YH250 for 24 hours. Cell lyses were pulled down with anti-p300 or anti-CBP antibodies, run on gel and probed with anti-β-catenin antibody. […] A biotinylated version of YH249 (Bio-249) was prepared via the propargyl amide variant. Using a biotin with a linker and a terminal azide residue, we were able to couple the biotin to the YH249 core via a 3+2 cyclization reaction to provide Bio-249. Bio-249 was incubated with lysates from C2Cl2 myoblasts, either in the presence or absence of competitor YH249 for 4 h at 4° C. and then bound to streptavidin agarose beads. After extensive washing the bound proteins were eluted and run out on an […].

mouse bone marrow cells = test: Colony-forming cell (CFC) assay after 4 h in vitro treatment; assay type: cell-based
Protocol: Brief (less than 24 hours) treatment of HSC with YH250 or DMSO was conducted before the CFC or CFU-S12 assay. Mouse bone marrow cells were treated with DMSO (solvent control) or YH250 for 4 hours in serum free HSC expansion medium before the cells were recovered for a colony forming assay. 7-8 Days after cell plating in methylcellulose medium (Stemcell Technologies, Methocult GF M3434, Cat#3434), colonies were scored, and the cells from each plate were recovered and counted.
In fact, they also show similar biological functions with respect to HSPC.

bone marrow cells = test: Brief (4 h) incubation of bone marrow cells, 14 days culture, FACS; assay type: cell-based, mouse; details: 0.5 μM 4 hrs, 14 days culture
Protocol: Bone marrow cells were treated with DMSO or YH250 (0.5 μM) for 4 hours, then the compound was removed and the cells cultured in QBSF-58 medium for 14 days with 10 ng/ml of SCF, TPO, Flt3 ligand, and IL-6. At the end of culture, cells were recovered and analyzed for LSK cells with FACS.
In a further study, female CD45.1 mice bone marrow cells were incubated with DMSO, or YH249 (0.5 μM) or YH250 (0.5 μM) for 4 hrs in QBSF-58 media, then 2×10^4 cells were plated in QBSF-58 medium containing SCF, TPO, Flt3 and IL-6 (10 ng/ml for each) for 14 days. Cells were then recovered from plate for FACS analysis. […] Correspondingly, there are higher LSK cells (52%, 60% and 70% respectively for DMSO, YH249 and YH250). From every 10,000 analyzed cells, LSKCD34negt cell numbers are 437, 663 and 2051 for DMSO, YH249 and YH250 treated cells, respectively.

R1 mESCs [4] = test: Maintenance of mouse ES cell pluripotency, feeder free, 5 days; assay type: cell-based; details: with 50 ng/ml Wnt3a or 3 μM CHIR99021; 500 nM YH249 or 200 nM YH250, 5 days
Protocol: (§4) We also determined that IQ-1 indirectly, via binding to the PR72/130 subunit of PP2A, inhibited the p300/β-catenin interaction (Id). Therefore, we anticipated that YH249/250 should also maintain mESC pluripotency in a Wnt dependent manner. To test his, R1 mESCs were cultured under feeder free conditions in the presence or absence of YH249/250 for 5 days. […] Pluripotency markers, Oct4, Nanog, Sox2, SSEA-1 and ALP, were all expressed in the cells treated with Wnt3a and YH250 (FIG. 28b). Moreover, Wnt3a could be replaced with the selective GSK-3 inhibitor CHIR99021, which activates the Wnt signaling pathway (FIG. 28a, lower panel). […] In the event, similarly to ID-8, the combination of Wnt3a and YH249/250 provided morphologically undifferentiated colonies of H9 human embryonic stem cells (hESCs) without FGF and TGF (FIG. 28c). hPSC markers were detected by ALP staining and immunofluorescence (FIG. 28d). In addition to H9 cells, two other hESC lines and a human induced pluripotent stem (iPS) cell line could be also maintained undifferentiated morphology utilizing the same conditions (not shown).
Specifically, FIG. 28A-28D, show maintenance of ESC's pluripotency by YH249 and YH250. […] 28A, Typical colony morphologies of RI mouse ES cells cultured 5 days in [upper panel] 3 μM CHIR99021 and 1 μM PD0325901 (2i) medium, basal medium (2i medium without CHIR99021 and PD0325901), basal medium supplemented with 50 ng/ml Wnt3a alone, [middle panel] combination of 50 ng/ml Wnt3a and 2 μM IQ-1, 500 nM YH249 or 200 nM YH250, [lower panel] 3 μM of CHIR99021 alone, and combination of 3 μM CHIR99021 and 500 nM YH249 or 200 nM YH250. […] The blue signal (Wnt3a panels) represents DAPI nuclear staining. Bars indicate […]. […] The blue signal (Wnt3a panels) represents DAP1 nuclear staining. Scale bars indicate 100 am.

[5] = system: H9 human embryonic stem cells; test: Maintenance of human ES cell pluripotency, 5 days; assay type: cell-based; details: 25 ng/ml Wnt3a; 500 nM YH249 or 200 nM YH250, 5 days, without FGF and TGF
Protocol: as §4
Specifically, FIG. 28A-28D, show maintenance of ESC's pluripotency by YH249 and YH250. […] 28A, Typical colony morphologies of RI mouse ES cells cultured 5 days in [upper panel] […]

[6] = 4 hours incubation then CFC assay

O=C1[C@H](Cc2ccc(O)cc2)N2C(=O)CCN(C(=O)NCc3ccccc3)[C@H]2CN1Cc1cccc2ccccc12 [ICG-001, reference compound]
luciferase activity (Wnt/β-catenin activity) (Wnt/β-catenin pathway; Hek293 TCF/LEF luciferase): luciferase activity was decreased | survivin expression level in survivin-reporter system (Human survivin promoter): significantly decreased in a dose dependent manner | p300/γ-catenin interaction [1]: promotes p300/γ-catenin interaction | CBP/γ-catenin interaction [2]: inhibits CBP/γ-catenin interaction

CC(=O)c1ccc(NN=C(C(N)=O)C2=NC(C)(C)Cc3ccccc32)cc1 [IQ-1]
mESC pluripotency (previously reported) (R1 mESCs [3]): maintain long term mESC pluripotency

COc1cccc(CNC(=O)N2C3CN(Cc4cccc(Cl)c4N(C)C)C(=O)[C@H](Cc4ccc(O)cc4)N3C(=O)CN2C)c1OC (some centres unmarked) [YH249]
IC50 (Wnt/β-catenin pathway; Homo sapiens, HEK293, STF1.1 Hek-293, 1 hour pre-incubation, 10 mM LiCl 24 hours): < 100 nM | IC50 (Human survivin promoter; Homo sapiens, Survivin-Hek-293, 24 hours, read-out: survivin/luciferase reporter: did not inhibit up to): > 20 µM | binding to p300 (affinity precipitation, p300 immunoblot) (p300; C2Cl2 lysates, 4 h at 4° C., streptavidin agarose beads): directly binding to p300 | competition of the band precipitated by Bio-249 (p300; free competitor): strongly competed out | CELL#/plate (mouse bone marrow cells; [6]): 5.2 × 10^5 | CFC#/plate (mouse bone marrow cells; [6]): 27 | cell number in each plate vs DMSO (mouse bone marrow cells; 4 hours treatment, cells recovered from plate): higher cell number in each plate | lineage negative cell (bone marrow cells; DMSO 9%): 17% | LSK cells (bone marrow cells; DMSO 52%): 60% | LSKCD34negt cell numbers (bone marrow cells; from every 10,000 analyzed cells, DMSO 437): 663 | mESC pluripotency (R1 mESCs [4]): maintain pluripotency | hESC pluripotency [5]: maintain pluripotency
